Laboratory results from patent US9200046B2, “Reporter system for high throughput screening of compounds and uses thereof” (priority 2011, dated 2015).
Structures can show the parent of a compound that is named as a salt. Where two headings read alike, the source gives them in different places.

Molecular target: Nrf2-Keap1 complex (Homo sapiens, UniProt Q14145)
Assay: cell-based
Format: cell-based
Conditions: for activation at 16 µM / activation at 32 µM: 3 h; for activation at 16 µM: read-out: Activation 100 nL; for activation at 32 µM: read-out: Activation 200 nL
[1] = Table 2, 100 nL compound, screen run at 16 and 32 μM, 3 hr
[2] = Table 2, 200 nL compound, screen run at 16 and 32 μM, 3 hr
[3] = Table 1A, 100 nL compound, screen run at 16 and 32 μM, 3 hr
[4] = Table 1A, 200 nL compound, screen run at 16 and 32 μM, 3 hr

Sequence of Nrf2-Keap1 complex (Q14145 whole entry, one chain of several): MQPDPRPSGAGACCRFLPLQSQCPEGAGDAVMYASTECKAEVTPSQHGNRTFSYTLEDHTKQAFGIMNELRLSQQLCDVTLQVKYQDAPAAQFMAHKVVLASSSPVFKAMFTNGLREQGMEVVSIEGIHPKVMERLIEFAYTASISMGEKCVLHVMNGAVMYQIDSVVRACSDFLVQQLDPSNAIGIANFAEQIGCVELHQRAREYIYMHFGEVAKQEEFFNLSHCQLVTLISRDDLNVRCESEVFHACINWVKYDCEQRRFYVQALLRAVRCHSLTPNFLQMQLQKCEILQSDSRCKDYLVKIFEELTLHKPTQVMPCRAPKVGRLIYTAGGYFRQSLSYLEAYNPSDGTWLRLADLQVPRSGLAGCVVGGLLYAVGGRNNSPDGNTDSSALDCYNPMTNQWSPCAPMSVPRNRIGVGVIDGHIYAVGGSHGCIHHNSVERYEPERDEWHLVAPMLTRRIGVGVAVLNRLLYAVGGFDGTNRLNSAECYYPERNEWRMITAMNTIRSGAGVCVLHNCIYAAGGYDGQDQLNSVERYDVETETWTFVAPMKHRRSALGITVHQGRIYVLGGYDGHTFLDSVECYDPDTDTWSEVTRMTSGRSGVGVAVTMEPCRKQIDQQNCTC

Molecule	activation at 16 µM	activation at 32 µM	100 nL (luminescence) [1]	200 nL (luminescence) [2]	other results
COC1=CC(=O)C[C@@H](C)[C@]12Oc1c(Cl)c(OC)cc(OC)c1C2=O [GRISEOFULVIN, reference compound]	41%	182%	1208	3684	
CC(=O)N1CCN(c2ccc(OCC3CO[C@](Cn4ccnc4)(c4ccc(Cl)cc4Cl)O3)cc2)CC1 (stereo partly drawn) [KETOCONAZOLE, reference compound]					100 nL (luminescence): 1144; 200 nL (luminescence): 1026; Activation 100 nL: 64%; Activation 200 nL: 33%
CC(=O)O[C@H]1C[C@@H](OC(C)=O)C(C)(C)[C@@H]2CC(=O)[C@]3(C)[C@H](CC[C@@]4(C)[C@H](c5ccoc5)OC(=O)[C@H]5O[C@]543)[C@@]12C [7-DEACETOXY-7-OXOKHIVORIN]			2924	2284	Activation 100 nL: 168%; Activation 200 nL: 128%
CNC(=O)CSP(=S)(OC)OC [DIMETHOATE]	59%	145%	1148	3772	
ClC1=C(Cl)C2(Cl)C3C(Cl)C(Cl)CC3C1(Cl)C2(Cl)Cl (stereo not drawn) [CHLORDANE]	107%	135%	1796	3540	
COc1ccc(-c2oc3ccccc3c(=O)c2O)cc1OC [3-HYDROXY-3′,4′-DIMETHOXYFLAVONE]	85%	-6%	1504	316	fold less effective than quercetin and fisetin (flavone SAR): 2.5 fold
CCCCC(CC)CNC(=N)NC(=N)NCCCCCCNC(=N)NC(=N)NCC(CC)CCCC (stereo not drawn) [ALEXIDINEHYDROCHLORIDE]	101%	-18%	1900	52	
COc1ccc(C(=O)/C=C/c2ccccc2)cc1 [4′-METHOXYCHALCONE]	134%	-15%	2400	102	
Nc1nc(N)c2nc(-c3ccccc3)c(N)nc2n1 [reference compound]	405%	23%			100 nL (luminescence) [3]: 3914; 200 nL (luminescence) [4]: 872
CC(=O)Oc1cc2c(cc1OC(C)=O)[C@@H]1c3ccc(OC(C)=O)c(OC(C)=O)c3OC[C@]1(OC(C)=O)C2 [HAEMATOXYLINPENTAACETATE]			1040	1304	Activation 100 nL: 50%; Activation 200 nL: 37%
O=c1cc(-c2cc(O)c(O)c(O)c2)oc2cc(O)cc(O)c12 [HIERACIN]			2502	1832	Activation 100 nL: 160%; Activation 200 nL: 60%
O=C(CCBr)N1CCN(C(=O)CCBr)CC1 [PIPOBROMAN, reference compound]	79%	185%			100 nL (luminescence): 1976; 200 nL (luminescence): 3732
CCC(C)C(=O)c1c(O)c(C)c2oc3c(C)c(O)c(C(=O)C(C)CC)c(O)c3c2c1O (stereo not drawn) [RHODOMYRTOXINB]	56%	36%			100 nL (luminescence) [3]: 1120; 200 nL (luminescence) [4]: 1276
CC(C)=CCC1=C(O)C(=O)c2ccccc2C1=O [LAPACHOL]	47%	24%			
COC(=O)Nc1nc2ccc(Sc3ccccc3)cc2[nH]1 [FENBENDAZOLE, reference compound]	224%	-24%			100 nL (luminescence) [3]: 4908; 200 nL (luminescence) [4]: 92
CCOc1ccc(C(=O)c2ccc(OC)c(O)c2O)cc1 [2,3-DIHYDROXY-4-METHOXY-4′-ETHOXYBENZOPHENONE]	117%	65%	2142	1324	
CC(C)c1ccc2c(c1)CC[C@H]1[C@](C)(C(N)=O)CCC[C@]21C [DEHYDROABIETAMIDE]	66%	135%			
NCCc1ccc(O)c(O)c1 [3-HYDROXYTYRAMINE]	37%	69%			100 nL (luminescence): 990; 200 nL (luminescence): 1704
Nc1ncnc2c1ncn2[C@@H]1O[C@H](CO)[C@@H](O)[C@H]1O [ADENOSINE, reference compound]	61%	20%			100 nL (luminescence): 1100; 200 nL (luminescence): 760; hit strength in the screen (words): modest hits
O=C1C[C@@H](c2ccc(O)c(O)c2)Oc2cc(O)cc(O)c21 [ERIODYCTOL]			1028	768	Activation 100 nL: 76%; Activation 200 nL: 18%
COc1cc([C@@H]2c3cc4c(cc3[C@@H](O)[C@H]3COC(=O)[C@H]23)OCO4)cc(OC)c1O [4′-DEMETHYLEPIPODOPHYLLOTOXIN]					100 nL (luminescence) [3]: 3188; 200 nL (luminescence) [4]: 2844

Molecule	activation at 16 µM	activation at 32 µM	100 nL (luminescence) [1]	200 nL (luminescence) [2]	other results
O=c1oc2cc(O)ccc2s1 [TIOXOLONE, reference compound]	156%	31%	3542	768	
METHYL7-DESHYDROXYPYROGALLIN-4-CARBOXYLATE			4444	3792	Activation 100 nL: 466%; Activation 200 nL: 147%
C=C(C)[C@@H]1CC=C(CO)CC1 [PERILLYLALCOHOL]	31%	27%			100 nL (luminescence): 824; 200 nL (luminescence): 736
COc1c(O)cc2c(-c3ccccc3)cc(=O)oc2c1OC [KUHLMANNIN]	26%	33%	596	1104	
COC(=O)CC[C@@H](C)[C@H]1CC[C@H]2[C@@H]3[C@H](O)C[C@@H]4C[C@H](O)CC[C@]4(C)[C@H]3C[C@H](O)[C@]12C [CHOLICACID, METHYLESTER]			848	804	Activation 100 nL: 36%; Activation 200 nL: 15%
COc1ccc(C(=O)c2ccccc2)c(O)c1O			780	1212	Activation 100 nL: 47%; Activation 200 nL: 37%
CC(C)=CCC[C@@H](C)[C@@H]1CC[C@]2(C)C3=C(CC[C@@]12C)[C@@]1(C)CC[C@H](O)C(C)(C)[C@@H]1CC3 [EUPHOL]	138%	74%	1572	2064	
CC(=O)OC1CCC23CC1(C)CCC2C(C)(C)CC3OC(C)=O (stereo not drawn) [CLOVANEDIOLDIACETATE]	27%	40%	728	1356	
CCC(C)C(=O)OC1[C@@H]2CC3=C4CC(=O)O[C@@H](c5ccoc5)[C@]4(C)CCC3[C@@](C)(C2=O)[C@@H](CC(=O)OC)C1(C)C (stereo partly drawn) [KHAYASIN]	90%	105%	1736	1928	
COc1cc2c(c(OC)c1OC)-c1ccc(OC)c(=O)cc1[C@@H](NC(C)=O)CC2 [COLCHICINE, reference compound]	49%	24%			100 nL (luminescence): 944; 200 nL (luminescence): 840
Cn1cnc([N+](=O)[O-])c1Sc1[nH]cnc2ncnc1-2 [AZATHIOPRINE, reference compound]	49%	70%			100 nL (luminescence): 948; 200 nL (luminescence): 1804; hit strength in the screen (words): modest hits
CC(=O)Oc1ccc(Cl)c2cccnc12 [CHLOROACETOXYQUINOLINE]	60%	37%			Neh2-luc reporter activation: 60%
O=C1C(O)=C(O)C(=O)C(O)=C1O [TETROQUINONE]	26%	27%	908	720	
CC1(C)C=CC(=O)[C@@]2(C)C1CC(=O)[C@]1(C)C2CC[C@@]2(C)[C@H](c3ccoc3)OC(=O)C3OC321 (stereo partly drawn) [DEACETOXY-7-OXISOGEDUNIN]			2960	3040	Activation 100 nL: 170%; Activation 200 nL: 178%
CC(=O)C(=Cc1ccccc1)CC(=O)O			1048	1348	Activation 100 nL: 78%; Activation 200 nL: 43%
CC(C)=CCc1c2c(c(O)c3c(=O)c(O)c(-c4ccccc4)oc13)C=CC(C)(C)O2 [SERICETIN]	263%	20%	2672	800	
N.N.[Cl][Pt][Cl] [CISPLATIN, reference compound]			1100	1496	Activation 100 nL: 36%; Activation 200 nL: 90%
CC(=O)O[C@@H]1C[C@H]2C(C)(C)C(=O)CC[C@]2(C)[C@H]2CC[C@@]3(C)[C@H](c4ccoc4)OC(=O)[C@H]4O[C@]43[C@@]21C [DIHYDROGEDUNIN]	112%	114%	1866	3068	
COc1ccc(/C=C/C(=O)c2ccc(O)cc2O)cc1OC [2′,4′-DIHYDROXY-3,4-DIMETHOXYCHALCONE]	321%	185%	5876	3964	
CC(=O)O[C@H]1C[C@@H](O)C(C)(C)[C@@H]2C[C@@H](OC(C)=O)[C@]3(C)[C@H](CC[C@@]4(C)[C@@H](c5ccoc5)OC(=O)[C@H]5O[C@@]534)[C@@]12C [3-DEACETYLKHIVORIN]			1628	2102	Activation 100 nL: 94%; Activation 200 nL: 72%
CC1=C2C(=CO[C@H](C)[C@H]2C)C(O)=C(C(=O)O)C1=O [CITRININ]	219%	217%			
